Literature values as cited in US10344034B2, “Pyrazolopyrimidone or Pyrrolotriazone derivatives, method of preparing same, and pharmaceutical applications thereof” (Shanghai Hengrui Pharmaceutical Co., Ltd., priority 2013, dated 2019).

Settings: cited from earlier work

COc1cccc(-c2c(C)n(Cc3c(F)cccc3C(F)(F)F)c(=O)n(C[C@H](NCCCC(=O)O)c3ccccc3)c2=O)c1F [elagolix, Elagolix]
safety and tolerability (endometriosis phase II trial): well verified
serum estrogen level (women with endometriosis, elagolix 150 or 250 mg qd, vs leuprorelin depot and placebo): lower than that of the leuprorelin treatment group and placebo group
